“And” between values parts separate entries of the source, which are not always exact repeats. Equal entries are not always repeated.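 Dose response: 5 concentrations. Exposure: 48 h. Format: 96-well plates. Endpoint: linear interpolation; highest concentration if not reached. Here, GI50 denotes the concentration required for 50% inhibition of growth. Definition used: TGI = concentration required for complete inhibition of growth.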

Some test systems named below: RXF 393 renal; HCT-116 colon; M14 melanoma; HCT-15 colon; MALME-3M melanoma; UACC-62 melanoma; NCI-H460 lung; SNB-75 CNS; CCRF-CEM leukemia; SK-MEL-28 melanoma.
What all share (test): NCI anticancer screen, dose series, 48 h

Regarding `Cc1c2cnccc2c(C)c2c1c1cc(C3OCCCO3)ccc1n2C`, the GI50 in the assay with RXF 393 renal was 0.172 µM; with HCT-116 colon it was 0.0472 µM; in the assay on M14 melanoma it was 0.317 µM; in the assay on HCT-15 colon, 0.281 µM; in the assay on MALME-3M melanoma, 0.29 µM; with UACC-62 melanoma it was 0.197 µM. The GI50 in the assay with NCI-H460 lung is 0.293 µM; with SNB-75 CNS, 0.257 µM; with CCRF-CEM leukemia, 0.291 µM; in the assay with SK-MEL-28 melanoma, 0.459 µM. Further, the TGI in the assay with RXF 393 renal came out at 0.921 µM; in the assay on HCT-116 colon, 1.05 µM; in the assay on M14 melanoma it was 1.16 µM; with HCT-15 colon, 1.4 µM; with MALME-3M melanoma it was 1.12 µM; in the assay on UACC-62 melanoma, 0.747 µM. Also, the TGI in the assay with NCI-H460 lung came out at 1.15 µM; in the assay on SNB-75 CNS, 1.37 µM; in the assay on CCRF-CEM leukemia, 3.81 µM; in the assay with SK-MEL-28 melanoma it was 1.68 µM.

For `O=[N+]([O-])c1ccc(Nc2ccccc2-c2ccccc2)c2nonc12`, the GI50 with RXF 393 renal is 13.7 µM; in the assay with HCT-116 colon, 13.9 µM; in the assay on M14 melanoma, 13.3 µM; with HCT-15 colon, 13.2 µM; in the assay with MALME-3M melanoma, 5.2 µM; in the assay on UACC-62 melanoma, 4.44 µM. Moreover, the GI50 is 13.1 µM in the assay with NCI-H460 lung, 13.6 µM in the assay with SNB-75 CNS, 15.6 µM in the assay with CCRF-CEM leukemia and 17.2 µM in the assay on SK-MEL-28 melanoma. For the same compound, the TGI in the assay with RXF 393 renal was 28.7 µM; in the assay with HCT-116 colon, 31.6 µM; in the assay on M14 melanoma, 30.6 µM; in the assay with HCT-15 colon, 28.2 µM; in the assay on MALME-3M melanoma it was 29.1 µM; in the assay on UACC-62 melanoma, 18 µM. For the same compound, the TGI was 42.3 µM with NCI-H460 lung, 36.6 µM in the assay with SNB-75 CNS, greater than 72.2 µM in the assay on CCRF-CEM leukemia and 45.3 µM with SK-MEL-28 melanoma.

As to `COc1cccc2c1C(=O)c1c(O)c3c(c(O)c1C2=O)CC(O)(C(C)=O)CC3OC1CC(N)C(O)C(C)O1` (centres undefined), the GI50 in the assay with RXF 393 renal is 0.263 µg/mL; in the assay with M14 melanoma, 0.0403 µg/mL; in the assay on HCT-15 colon, 0.824 µg/mL; with MALME-3M melanoma, 0.0663 µg/mL; with UACC-62 melanoma it was 0.0157 µg/mL; with SNB-75 CNS, 0.0256 µg/mL. Moreover, the GI50 in the assay with SK-MEL-28 melanoma is 0.104 µg/mL. Besides, the TGI with RXF 393 renal turned out to be 1.48 µg/mL; in the assay with HCT-116 colon it was 2.06 µg/mL; in the assay on M14 melanoma it was 0.705 µg/mL; in the assay with HCT-15 colon, 7.86 µg/mL; in the assay on MALME-3M melanoma it was 0.356 µg/mL; in the assay on UACC-62 melanoma, 0.0734 µg/mL. Moreover, the TGI with NCI-H460 lung was 2.02 µg/mL; with SNB-75 CNS, 0.138 µg/mL; in the assay with CCRF-CEM leukemia it was 0.324 µg/mL; with SK-MEL-28 melanoma, 0.607 µg/mL.

As to `C=C(Cn1c(=O)c2ccccc2c2ccccc21)c1ccc(C(=O)Nc2ccccc2N)cc1`, the GI50 with RXF 393 renal is 5.21 µM; in the assay with HCT-116 colon, 15.2 µM; in the assay with M14 melanoma, greater than 19.8 µM; in the assay with HCT-15 colon it was 33.5 µM; in the assay on MALME-3M melanoma, 5.19 µM; in the assay with UACC-62 melanoma, 24.1 µM. Besides, the GI50 is 21.3 µM with NCI-H460 lung, 4.41 µM in the assay with SNB-75 CNS, 0.466 µM with CCRF-CEM leukemia and greater than 37.8 µM in the assay with SK-MEL-28 melanoma. Further, the TGI in the assay with RXF 393 renal was greater than 68.5 µM; in the assay with HCT-116 colon, greater than 100 µM; with M14 melanoma it was greater than 100 µM; in the assay with HCT-15 colon, greater than 100 µM; in the assay on MALME-3M melanoma, greater than 92.8 µM; in the assay on UACC-62 melanoma it was greater than 100 µM. The TGI in the assay on NCI-H460 lung is greater than 100 µM; in the assay on SNB-75 CNS, greater than 94.4 µM; in the assay on CCRF-CEM leukemia, 4.13 µM; in the assay with SK-MEL-28 melanoma it was greater than 100 µM.

For the compound `CC[P+](C)(Cc1ccccc1)c1ccccc1` (centres undefined), the TGI in the assay with RXF 393 renal, in the assay on HCT-116 colon, in the assay with M14 melanoma, in the assay on HCT-15 colon, with MALME-3M melanoma and in the assay on UACC-62 melanoma was greater than 100 µM throughout. The TGI with NCI-H460 lung, in the assay on SNB-75 CNS, in the assay with CCRF-CEM leukemia and with SK-MEL-28 melanoma was greater than 100 µM each time.

As to `Cc1ccc(C)c(NC(=O)C(=O)CC(=O)C2CCOC2=O)c1` (centres undefined), the TGI in the assay with RXF 393 renal, in the assay on HCT-116 colon, in the assay on M14 melanoma, in the assay on HCT-15 colon, in the assay on MALME-3M melanoma and in the assay with UACC-62 melanoma was greater than 100 µM in each case. Moreover, the TGI with NCI-H460 lung, in the assay on SNB-75 CNS, in the assay with CCRF-CEM leukemia and in the assay with SK-MEL-28 melanoma was greater than 100 µM throughout.

As to `Cc1nc2ccc(CN(C)c3ccc(C(=O)N[C@@H](CCC(=O)O)C(=O)O)s3)cc2c(=O)[nH]1`, the GI50 with RXF 393 renal is greater than 21.7 µM; with CCRF-CEM leukemia it was 0.027 µM. In addition, the TGI with RXF 393 renal, in the assay on HCT-116 colon, in the assay on M14 melanoma, in the assay on HCT-15 colon, in the assay on MALME-3M melanoma and with UACC-62 melanoma was greater than 100 µM each time. Also, the TGI in the assay on NCI-H460 lung, with SNB-75 CNS, in the assay with CCRF-CEM leukemia and with SK-MEL-28 melanoma was greater than 100 µM in each case.

On to `CNC(=O)c1cc(COc2nnc(Nc3ccc(Cl)cc3)c3ccoc23)ccn1`, for which the GI50 is 2.99 µM and 9.09 µM with RXF 393 renal; 3.32 µM and > 10 µM in the assay on HCT-116 colon; 15.7 µM and > 10 µM in the assay on M14 melanoma; 12.6 µM and > 10 µM in the assay with HCT-15 colon; 4.11 µM and > 10 µM in the assay with MALME-3M melanoma; 6.3 µM and > 10 µM with UACC-62 melanoma. Further, the GI50 is 4.21 µM and > 10 µM in the assay with NCI-H460 lung; 0.769 µM and 2.78 µM in the assay on SNB-75 CNS; 26.9 µM and > 10 µM in the assay with CCRF-CEM leukemia; 7.98 µM and > 10 µM in the assay with SK-MEL-28 melanoma. In addition, the TGI was 11 µM and > 10 µM with RXF 393 renal; 11.3 µM and > 10 µM with HCT-116 colon; 54.9 µM and > 10 µM in the assay with M14 melanoma; 52.4 µM and > 10 µM in the assay with HCT-15 colon; 17.2 µM and > 10 µM with MALME-3M melanoma; 30.3 µM and > 10 µM with UACC-62 melanoma. Also, the TGI in the assay on NCI-H460 lung was 20.9 µM and > 10 µM; with SNB-75 CNS, 4.71 µM and > 10 µM; in the assay on CCRF-CEM leukemia, greater than 79.5 µM; with SK-MEL-28 melanoma, 27.7 µM and > 10 µM.
